Consider six compounds from PubChem BioAssay (NCI).

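Interpolation was linear, between the two tested concentrations surrounding the appropriate level; five concentrations were tested over 48 hours in 96-well plates. The concentration for full growth arrest is given as TGI.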 Where only a bound is given, the exact number is not on record here.

Test systems include HCT-116 colon; 786-0 renal; BT-549 breast; SN12C renal; UO-31 renal; SK-MEL-5 melanoma; OVCAR-5 ovarian; SF-295 CNS; SNB-75 CNS; SNB-19 CNS; UACC-62 melanoma; NCI-H23 lung; ACHN renal; SK-OV-3 ovarian; MALME-3M melanoma; KM12 colon; MDA-N; RXF 393 renal; HOP-62 NSCLC; M14 melanoma.
Common to all, as to assay: DTP human tumour cell line panel, 48 h

As for `CO[C@]1(c2ccc([N+](=O)[O-])cc2)Oc2ccccc2C(=O)[C@@]1(Nc1ccc(C=O)cc1)OC`, the TGI with HCT-116 colon, in the experiment with 786-0 renal, with BT-549 breast, in the experiment with SN12C renal, in the experiment with UO-31 renal and in the experiment with SK-MEL-5 melanoma was more than 10 µM in each case. Besides, the TGI with OVCAR-5 ovarian, in the experiment with SF-295 CNS, in the experiment with SNB-75 CNS, in the experiment with SNB-19 CNS, in the experiment with UACC-62 melanoma and in the experiment with NCI-H23 lung was more than 10 µM in each case. Also, the TGI in the experiment with ACHN renal, in the experiment with SK-OV-3 ovarian, in the experiment with MALME-3M melanoma, with KM12 colon, in the experiment on MDA-N and in the experiment with RXF 393 renal was more than 10 µM each time. Further, the TGI with HOP-62 NSCLC and with M14 melanoma was more than 10 µM throughout.

With `Cn1c(=O)c2c3ccccc3n(C)c2n(C)c1=O`, the TGI in the experiment with HCT-116 colon, in the experiment on 786-0 renal, with BT-549 breast, with SN12C renal, with UO-31 renal and in the experiment with SK-MEL-5 melanoma was more than 100 µM each time. Besides, the TGI in the experiment with OVCAR-5 ovarian, with SF-295 CNS, in the experiment on SNB-75 CNS, with SNB-19 CNS, in the experiment on UACC-62 melanoma and in the experiment on NCI-H23 lung was more than 100 µM throughout. In addition, the TGI (commonly the concentration at which net growth stops) was more than 100 µM with ACHN renal; 83.9 µM with SK-OV-3 ovarian; more than 100 µM in the experiment on MALME-3M melanoma; more than 100 µM in the experiment on KM12 colon; more than 100 µM in the experiment on MDA-N; more than 100 µM in the experiment on RXF 393 renal. In addition, the TGI in the experiment on HOP-62 NSCLC and in the experiment with M14 melanoma was more than 100 µM in each case.

In the case of `C=Cc1nc2c(Cl)ncnc2n1Cc1ccccc1`, the TGI came to 4.72 µM in the experiment on HCT-116 colon; 4.49 µM in the experiment with 786-0 renal; 10.9 µM in the experiment on BT-549 breast; 17.5 µM in the experiment with SN12C renal; 6.02 µM with UO-31 renal; 8.69 µM in the experiment with SK-MEL-5 melanoma. Besides, the TGI turned out to be 30.5 µM in the experiment with OVCAR-5 ovarian; 32.2 µM in the experiment on SF-295 CNS; 28.4 µM in the experiment with SNB-75 CNS; 31.5 µM with SNB-19 CNS; 19.8 µM in the experiment with UACC-62 melanoma; 11.6 µM in the experiment on NCI-H23 lung. Also, the TGI worked out at 3.59 µM in the experiment on ACHN renal; 31 µM in the experiment with SK-OV-3 ovarian; 15.1 µM in the experiment with MALME-3M melanoma; 11.5 µM in the experiment with KM12 colon; 13.6 µM in the experiment with MDA-N; 7.84 µM in the experiment with RXF 393 renal. For the same compound, the TGI in the experiment on HOP-62 NSCLC worked out at 20.1 µM; in the experiment with M14 melanoma, 15.7 µM.

Turning to `O=C1C=Cc2c(Br)sc(Br)c21`, the TGI in the experiment with HCT-116 colon was 77.1 µM; with 786-0 renal, more than 100 µM; in the experiment with BT-549 breast, more than 100 µM; in the experiment on SN12C renal, more than 100 µM; in the experiment on UO-31 renal it was 39.2 µM; with SK-MEL-5 melanoma, more than 100 µM. The TGI in the experiment on OVCAR-5 ovarian was more than 100 µM; in the experiment with SF-295 CNS it was more than 100 µM; with SNB-75 CNS it was more than 100 µM; in the experiment on SNB-19 CNS it was more than 100 µM; in the experiment on UACC-62 melanoma it was 76.4 µM; in the experiment on NCI-H23 lung it was more than 100 µM. The TGI in the experiment on ACHN renal is 57.7 µM; with SK-OV-3 ovarian it was more than 100 µM; with MALME-3M melanoma, 64.6 µM; with KM12 colon, more than 100 µM; in the experiment with MDA-N, more than 100 µM; in the experiment with RXF 393 renal, 46 µM. In addition, the concentration for total growth inhibition (TGI) with HOP-62 NSCLC was determined as 84.8 µM; in the experiment on M14 melanoma, 84.4 µM.

In the case of `C=C(C)[C@@H]1CCC2=C[C@@H](OC2=O)[C@@H](C(=C)C)C2=CC(C(=O)O)=C(C1)O2`, the TGI in the experiment on HCT-116 colon, in the experiment with 786-0 renal, in the experiment with BT-549 breast, with SN12C renal, in the experiment on UO-31 renal and in the experiment on SK-MEL-5 melanoma was more than 100 µM throughout. Further, the TGI with OVCAR-5 ovarian, in the experiment on SF-295 CNS, with SNB-75 CNS, in the experiment on SNB-19 CNS, in the experiment on UACC-62 melanoma and in the experiment with NCI-H23 lung was more than 100 µM each time. For the same compound, the TGI in the experiment with ACHN renal, in the experiment on SK-OV-3 ovarian, in the experiment with MALME-3M melanoma, with KM12 colon, in the experiment with MDA-N and with RXF 393 renal was more than 100 µM each time. Besides, the TGI in the experiment on HOP-62 NSCLC and with M14 melanoma was more than 100 µM in each case.

With `O=C(C1OC1c1ccc(Cl)cc1)C12CC3CC(CC(C3)C1)C2` (stereo not given), the TGI in the experiment with HCT-116 colon was determined as 28.8 µM; with 786-0 renal it was 30.7 µM; in the experiment on BT-549 breast, 52.1 µM; with SN12C renal it was 32.2 µM; in the experiment with UO-31 renal, 41.9 µM; in the experiment with SK-MEL-5 melanoma, 28.6 µM. For the same compound, the TGI was 50.8 µM in the experiment on OVCAR-5 ovarian; 58.6 µM in the experiment with SF-295 CNS; 96.1 µM in the experiment with SNB-75 CNS; more than 100 µM in the experiment with SNB-19 CNS; 45.1 µM in the experiment with UACC-62 melanoma; 38.4 µM in the experiment on NCI-H23 lung. In addition, the TGI with ACHN renal is 90.1 µM; with SK-OV-3 ovarian it was 74 µM; with MALME-3M melanoma, 69.8 µM; in the experiment with KM12 colon, 41 µM; with MDA-N, 36.6 µM; with RXF 393 renal, 39.2 µM. Moreover, the TGI is 56.5 µM in the experiment on HOP-62 NSCLC and 38.1 µM with M14 melanoma.
